According to PubChem BioAssay (NCI):
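Exposure lasted 48 hours, with cells grown in 96-well plates and compounds tested at five concentrations. TGI marks complete inhibition of growth.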

Experiments:
Assay in all cases: NCI-60 cell line screen, 48 h
786-0 renal = tested on: 786-0 renal
A498 renal = tested on: A498 renal
A549 NSCLC = tested on: A549 NSCLC
ACHN renal = tested on: ACHN renal
CAKI-1 renal = tested on: CAKI-1 renal
CCRF-CEM leukemia = tested on: CCRF-CEM leukemia
COLO 205 colon = tested on: COLO 205 colon
DLD-1 colon = tested on: DLD-1 colon
DMS 114 small cell lung = tested on: DMS 114 small cell lung
DMS 273 small cell lung = tested on: DMS 273 small cell lung
EKVX NSCLC = tested on: EKVX NSCLC
HCC-2998 colon = tested on: HCC-2998 colon
HCT-15 colon = tested on: HCT-15 colon
HL-60(TB) leukemia = tested on: HL-60(TB) leukemia
HOP-18 NSCLC = tested on: HOP-18 NSCLC
HOP-62 NSCLC = tested on: HOP-62 NSCLC
HOP-92 NSCLC = tested on: HOP-92 NSCLC
HT29 colon = tested on: HT29 colon
IGROV1 ovarian = tested on: IGROV1 ovarian
K-562 leukemia = tested on: K-562 leukemia
KM12 colon = tested on: KM12 colon
KM20L2 colon = tested on: KM20L2 colon
LOX IMVI melanoma = tested on: LOX IMVI melanoma
MALME-3M melanoma = tested on: MALME-3M melanoma
MOLT-4 leukemia = tested on: MOLT-4 leukemia
NCI-H226 lung = tested on: NCI-H226 lung
NCI-H23 lung = tested on: NCI-H23 lung
NCI-H460 lung = tested on: NCI-H460 lung
NCI-H522 lung = tested on: NCI-H522 lung
OVCAR-3 ovarian = tested on: OVCAR-3 ovarian
OVCAR-5 ovarian = tested on: OVCAR-5 ovarian
OVCAR-8 ovarian = tested on: OVCAR-8 ovarian
RPMI-8226 leukemia = tested on: RPMI-8226 leukemia
RXF 393 renal = tested on: RXF 393 renal
RXF-631 renal = tested on: RXF-631 renal
SF-268 CNS = tested on: SF-268 CNS
SF-295 CNS = tested on: SF-295 CNS
SF-539 CNS = tested on: SF-539 CNS
SK-MEL-2 melanoma = tested on: SK-MEL-2 melanoma
SK-MEL-28 melanoma = tested on: SK-MEL-28 melanoma
SK-MEL-5 melanoma = tested on: SK-MEL-5 melanoma
SK-OV-3 ovarian = tested on: SK-OV-3 ovarian
SN12C renal = tested on: SN12C renal
SNB-19 CNS = tested on: SNB-19 CNS
SNB-75 CNS = tested on: SNB-75 CNS
SNB-78 CNS = tested on: SNB-78 CNS
SW-620 colon = tested on: SW-620 colon
TK-10 renal = tested on: TK-10 renal
U251 CNS = tested on: U251 CNS
UACC-257 melanoma = tested on: UACC-257 melanoma
UACC-62 melanoma = tested on: UACC-62 melanoma
UO-31 renal = tested on: UO-31 renal
HCT-116 colon = tested on: HCT-116 colon
LXFL 529 NSCLC = tested on: LXFL 529 NSCLC
M14 melanoma = tested on: M14 melanoma
M19-MEL melanoma = tested on: M19-MEL melanoma
OVCAR-4 ovarian = tested on: OVCAR-4 ovarian
SR leukemia = tested on: SR leukemia
XF 498 CNS = tested on: XF 498 CNS

Measured: TGI

Clc1ccc(SCCSCCCCCCCCCCSCCSc2ccc(Cl)cc2)cc1
not listed: HCT-116 colon | LXFL 529 NSCLC | M14 melanoma | M19-MEL melanoma | OVCAR-4 ovarian | SR leukemia | XF 498 CNS
> 100 µM: all other assays above

CC(C)(C)NN=C1C(C)(C)C(=NNC(C)(C)C)C1(C)C
not listed: A498 renal | CCRF-CEM leukemia | EKVX NSCLC | HOP-18 NSCLC | RXF-631 renal | SK-MEL-2 melanoma
> 100 µM: all other assays above
